Experimental findings from ChEMBL document CHEMBL3872220, “Amphiphilic xanthones as a potent chemical entity of anti-mycobacterial agents with membrane-targeting properties” (Eur J Med Chem, 2016) are described below.

For assay [1], the system named is Mycobacterium tuberculosis variant bovis. The assay can be described thus: Antimycobacterial activity against Mycobacterium bovis BCG ATCC 35734 assessed as ATP leakage by measuring intracellular ATP at 1 MIC measured immediatey after addition of compounds by luciferase reporter gene assay. It counts as functional, Mycobacterium tuberculosis variant bovis BCG. A general note: Reporter assays use an easily measured gene product as a stand-in for the process of interest.

The test system is the same in assay [2]. Kind of assay: Antimycobacterial activity against Mycobacterium bovis BCG ATCC 35734 assessed as ATP leakage by measuring intracellular ATP at 4 times MIC measured at 3 hrs post dose by luciferase reporter gene assay. In kind it is functional, Mycobacterium tuberculosis variant bovis BCG.
Assay [3] shares this test system. The assay can be described thus: Antimycobacterial activity against Mycobacterium bovis BCG ATCC 35734 assessed as ATP leakage by measuring extracellular ATP at 2 times MIC measured at 9 hrs post dose by luciferase reporter gene assay. It counts as functional, Mycobacterium tuberculosis variant bovis BCG.
The test system is the same in assay [4]. Kind of assay: Antimycobacterial activity against Mycobacterium bovis BCG ATCC 35734 assessed as ATP leakage by measuring extracellular ATP at 0.5 times MIC measured at 1 hr post dose by luciferase reporter gene assay. It counts as functional, Mycobacterium tuberculosis variant bovis BCG.
For assay [5] the test system is unchanged. The assay can be described thus: Antimycobacterial activity against Mycobacterium bovis BCG ATCC 35734 assessed as ATP leakage by measuring intracellular ATP at 2 times MIC measured at 3 hrs post dose by luciferase reporter gene assay. In kind it is functional, Mycobacterium tuberculosis variant bovis BCG.
Assay [6] shares this test system. The assay can be described thus: Antimycobacterial activity against Mycobacterium bovis BCG ATCC 35734 assessed as ATP leakage by measuring intracellular ATP at 0.5 times MIC measured at 6 hrs post dose by luciferase reporter gene assay. It counts as functional, Mycobacterium tuberculosis variant bovis BCG.
Assay [7] shares this test system. Kind of assay: Antimycobacterial activity against Mycobacterium bovis BCG ATCC 35734 assessed as ATP leakage by measuring extracellular ATP at 1 MIC measured at 3 hrs post dose by luciferase reporter gene assay. In kind it is functional, Mycobacterium tuberculosis variant bovis BCG.
For assay [8] the test system is unchanged. Kind of assay: Antimycobacterial activity against Mycobacterium bovis BCG ATCC 35734 assessed as ATP leakage by measuring intracellular ATP at 0.5 times MIC measured at 1 hr post dose by luciferase reporter gene assay. In kind it is functional, Mycobacterium tuberculosis variant bovis BCG.
Assay [9] has the same test system. The assay can be described thus: Antimycobacterial activity against Mycobacterium bovis BCG ATCC 35734 after 5 days by broth dilution assay. It counts as functional. The conditions noted are these: ATCC 35734, 120 h. For orientation: Broth dilution looks for growth in wells or tubes with falling amounts of substance.
Assay [10] shares this test system. The assay can be described thus: Antimycobacterial activity against Mycobacterium bovis BCG ATCC 35734 assessed as ATP leakage by measuring intracellular ATP at 2 times MIC measured at 9 hrs post dose by luciferase reporter gene assay. In kind it is functional, Mycobacterium tuberculosis variant bovis BCG.
Assay [11] has the same test system. The assay can be described thus: Antimycobacterial activity against Mycobacterium bovis BCG ATCC 35734 assessed as ATP leakage by measuring intracellular ATP at 2 times MIC measured at 1 hr post dose by luciferase reporter gene assay. In kind it is functional, Mycobacterium tuberculosis variant bovis BCG.
The test system is the same in assay [12]. Kind of assay: Antimycobacterial activity against Mycobacterium bovis BCG ATCC 35734 assessed as ATP leakage by measuring intracellular ATP at 1 MIC measured at 24 hrs post dose by luciferase reporter gene assay. In kind it is functional, Mycobacterium tuberculosis variant bovis BCG.
For assay [13] the test system is unchanged. The assay can be described thus: Antimycobacterial activity against Mycobacterium bovis BCG ATCC 35734 assessed as ATP leakage by measuring extracellular ATP at 0.5 times MIC measured at 24 hrs post dose by luciferase reporter gene assay. It counts as functional, Mycobacterium tuberculosis variant bovis BCG.
For assay [14] the test system is unchanged. Kind of assay: Antimycobacterial activity against Mycobacterium bovis BCG ATCC 35734 assessed as ATP leakage by measuring extracellular ATP at 2 times MIC measured immediatey after addition of compounds by luciferase reporter gene assay. In kind it is functional, Mycobacterium tuberculosis variant bovis BCG.
The test system is the same in assay [15]. The assay can be described thus: Antimycobacterial activity against Mycobacterium bovis BCG ATCC 35734 assessed as ATP leakage by measuring extracellular ATP at 1 MIC measured at 1 hr post dose by luciferase reporter gene assay. In kind it is functional, Mycobacterium tuberculosis variant bovis BCG.
The test system is the same in assay [16]. Kind of assay: Bactericidal activity against Mycobacterium bovis BCG ATCC 35734 assessed as log reduction in bacterial colonies at 4 times MIC measured after 24 hrs by time-kill assay. It counts as functional, Mycobacterium tuberculosis variant bovis BCG.
For assay [17] the test system is unchanged. Kind of assay: Antimycobacterial activity against Mycobacterium bovis BCG ATCC 35734 assessed as ATP leakage by measuring extracellular ATP at 0.5 times MIC measured at 6 hrs post dose by luciferase reporter gene assay. In kind it is functional, Mycobacterium tuberculosis variant bovis BCG.
The test system is the same in assay [18]. Kind of assay: Antimycobacterial activity against Mycobacterium bovis BCG ATCC 35734 assessed as ATP leakage by measuring intracellular ATP at 4 times MIC measured at 6 hrs post dose by luciferase reporter gene assay. In kind it is functional, Mycobacterium tuberculosis variant bovis BCG.
The test system is the same in assay [19]. The assay can be described thus: Antimycobacterial activity against Mycobacterium bovis BCG ATCC 35734 assessed as ATP leakage by measuring extracellular ATP at 1 MIC measured at 9 hrs post dose by luciferase reporter gene assay. In kind it is functional, Mycobacterium tuberculosis variant bovis BCG.
Assay [20] shares this test system. The assay can be described thus: Bactericidal activity against Mycobacterium bovis BCG ATCC 35734 measured after 14 days by time-kill assay. In kind it is functional.
Assay [21] shares this test system. Kind of assay: Induction of membrane integrity impairment in Mycobacterium bovis BCG ATCC 35734 assessed as pH shift at 30 uM after 3 hrs by dye based fluorescence spectroscopic method relative to control. In kind it is functional, Mycobacterium tuberculosis variant bovis BCG.
For assay [22] the test system is unchanged. Kind of assay: Bactericidal activity against Mycobacterium bovis BCG ATCC 35734 assessed as log reduction in bacterial colonies at 4 times MIC measured after 3 hrs by time-kill assay. In kind it is functional, Mycobacterium tuberculosis variant bovis BCG.
For assay [23] the test system is unchanged. The assay can be described thus: Bactericidal activity against Mycobacterium bovis BCG ATCC 35734 assessed as log reduction in bacterial colonies measured up to 24 hrs by time-kill assay. It counts as functional.
The test system is the same in assay [24]. Kind of assay: Induction of membrane disruption in Mycobacterium bovis BCG ATCC 35734 at 60 uM up to 3 hrs by Sytox green uptake assay. In kind it is functional.

SMILES strings stand for the structures. ≈ marks a conversion by molar mass, not a printed value. Calls of active or inactive are those of the source. No cut-off for these calls is given here.

A word on the MIC90: it is the lowest concentration that inhibits either 90% of growth or 90% of the strains tested, depending on the study. Lower therefore signals higher susceptibility.

With `COc1c(OCCCCN2CCOCC2)cc2oc3cc(OCCCCN4CCOCC4)c(CC=C(C)C)c(O)c3c(=O)c2c1CC=C(C)C`, the Activity is given as 95.3% in assay [1]; 66.6% in assay [2]; 33.1% in [3]; 20.2% in assay [4]; 80% in [5]; 91.4% in assay [6]. In addition, the Activity is 7.7% in assay [7]; 79.8% in [8]; 66.9% in assay [10]; 83.3% in assay [11]; 95.5% in assay [12]; 4.8% in assay [13]. Besides, the Activity is 8.1% in assay [14]; 11.5% in assay [15]; 3.3 in assay [16]; 8.6% in assay [17]; 37.2% in assay [18]; 13.5% in assay [19]. In addition, in assay [9], the MIC90 was determined as 30 µM (≈ 20.8 µg/mL).

Consider `CCCN(CCC)CCCCOc1cc2oc3cc(OCCCCN(CCC)CCC)c(OC)c(CC=C(C)C)c3c(=O)c2c(O)c1CC=C(C)C`, for which the Activity was determined as 97.5% in assay [1]; 57.9% in [2]; 75.3% in assay [3]; 25.1% in assay [4]; 55.8% in assay [5]; 72% in assay [6]. The Activity result in assay [20] was “Dose-dependent effect”; in assay [7], 24.2%; in assay [8], 74.9%; in [10], 24.7%; in assay [21], 76.6%; in assay [11] it was 89.9%. Moreover, the Activity is 1.5 in assay [22]; “Dose-dependent effect” in assay [23]; 62.5% in assay [12]; 15.6% in assay [13]; 2.2% in assay [14]; 13.2% in [15]. For the same compound, the Activity in assay [17] came out at 28%; in assay [18] it was 30.3%; in assay [19] it was 48.5%. In addition, the MIC90 in [9] is 3.2 µM (≈ 2.31 µg/mL).

In the case of `CCN(CC)CCCCOc1cc2oc3cc(OCCCCN(CC)CC)c(OC)c(CC=C(C)C)c3c(=O)c2c(O)c1CC=C(C)C`, the Activity in [1] worked out at 98%; in assay [2] it was 10.4%; in assay [3] it was 92.8%; in assay [4], 20.8%; in [5], 16.4%; in [6], 77.1%. Also, the Activity in assay [7] came to 66.1%; in [8] it was 79.2%; in [10] it was 7.2%; in assay [21] it was 20%; in assay [11] it was 57.6%; in assay [12], 13.6%. Besides, the Activity in [13] was found to be 34.7%; in assay [14] it was 3.6%; in assay [15], 24.9%; in [17], 22.9%; in assay [18], 6.7%; in [19] it was 85.3%. In addition, the result in assay [24] was Active. The MIC90 in assay [9] came to 6.4 µM (≈ 4.26 µg/mL).
